Reference: patent publication US8883962B2, “Zinc-responsive peptides, and methods of use thereof” (Massachusetts Institute of Technology, priority 2012, dated 2014)
Values joined by “and” are separate entries in the source; they are usually repeats but may differ in a detail not shown here. Identical values can stand only once. Counter-ions that a name gives are not always drawn. The star is where a group is joined. ZP1 = ZinPyr-1 zinc sensor: fluorescein platform with two dipicolylamine metal-binding arms, attached via its 6-CO2H; Palmitoyl = CCCCCCCCCCCCCCCC(=O)*

Key:
[1] = in 0.1 M H2SO4; cited from earlier work
HeLa cells [2] = experiment: Localization study in live cells by multichannel fluorescence microscopy (Pearson's correlation coefficient); type: cell-based
Description: We next explored whether Palm-ZP1 selective accumulates in the plasma membrane. […] Quantitative image analysis corroborated these findings: Palm-ZP1 and Cell Mask Orange strongly co-localize with a Pearson's correlation coefficient of r=0.70±0.05.
(§1) We carried out live cell imaging experiments to determine whether ZQ-MPP could target mitochondria and report on changes in zinc concentrations. HeLa cells were pretreated with a 25 μM solution of ZQ-MPP, which also contained MitoTracker Red as an internal mitochondria tracker (see later examples). […] The localization of ZQ-MPP was investigated with multichannel fluorescence microscopy. Visually, the distribution of MitoTracker Red (FIG. 19b) and ZQ-MPP (FIG. 19c) appear nearly identical. Overlaying the images (FIG. 19d) and calculating the Pearson's correlation coefficient yields an r=0.71±0.01, indicating strong colocalization.
(§2) Palm-ZP1 (10 μM) was incubated for 30 min at 37° C. and 5% CO2 in DMEM. For multichannel imaging and co-localization studies, staining of the plasma membrane was accomplished by addition of Cell Mask Orange (Life Technologies, final concentration 2.5 μg/mL) for 15-20 min. Prior to imaging, cells were rinsed with warm dye- and serum-free DMEM (2×2 mL) and bathed in warm dye- and serum-free DMEM (2 mL). […]
(§3) The imaging experiments were performed using a Zeiss Axiovert 200M inverted epifluorescence microscope equipped with an EM-CCD digital camera (Hamamatsu) and a MS200 XY Piezo Z stage (Applied Scientific Instruments). The light source was an X-Cite 120 metal-halide lamp (EXFO) and the fluorescence images were obtained using an oil-immersion objective at 63× magnification. […]
To calculate r, images were first deconvoluted using a calculated point-spread function (PSF) map based on emission wavelength, refractive index of the media (n=1.518), and the numerical aperture (1.4). Deconvoluted channels (i.e., sensor and organelle trackers) were merged and analyzed. For each image, a minimum of three regions-of-interest (ROI) were selected and the r-value calculated using an ImageJ plugin. […]

HeLa cells [3] = experiment: Live cell imaging of zinc-induced fluorescence turn-on; type: cell-based
Description: To assess the ability of Palm-ZP1 to function within a cellular environment, we conducted live cell imaging experiments. HeLa cells were incubated with a 10 μM solution of Palm-ZP1 in Dulbecco's Modified Eagle Medium (DMEM) for 30 min (37° C., 5% CO2) prior to imaging. Initial cell images had minimal ZP1 emission, consistent with the low quantum yield for the apo form of the sensor. […] Subsequent addition of 100 μM EDTA, a cell-impermeable chelator, attenuated the fluorescent signal to initial levels within 5 min, further confirming that the zinc-induced fluorescence increase occurs extracellularly.
as §1
HeLa cells were cultured at 37° C. under a 5% CO2 humidified atmosphere in Dulbecco's Modified Eagle Medium (High Glucose DMEM, Invitrogen) supplemented with 10% fetal bovine serum (FBS, HyClone), penicillin (100 μg/mL), and streptomycin (100 μg/mL). For live cell imaging, cells were seeded in 35-mm poly-D-Lys coated glass-bottom culture dishes (MatTek Corporation).
as §2, with “mL). To assess the zinc responsiveness of Palm-ZP1, stock solutions of ZnCl2 (10 mM) were diluted in warm dye- and serum-free DMEM to a final ZnCl2 concentration of 50 μM. The zinc-enriched media was exchanged in the cell culture dish directly on the microscope stage.” for “mL).”
as §3

[4] = Photophysical characterization (absorbance, emission, quantum yield) without and with zinc; type: physicochemical; details: 25 mM PIPES (pH 7), 50 mM KCl
Description: To investigate whether the zinc-sensing properties of the ZP1 moiety withstood the conditions of SPPS, we studied the zinc-binding and photophysical properties of Palm-ZP1 in vitro. Due to the hydrophobic palmitoyl moiety, we used a mixed solvent system consisting of 25 mM PIPES buffer (pH 7) with 50 mM KCl and 50% acetonitrile (v/v). In the absence of zinc, Palm-ZP1 has spectral features that are similar to those of other ZP1 derivatives. Apo Palm-ZP1 has a λabs=518 nm and λem=534 nm (φapo=0.16±0.05) (FIG. 24 and FIG. 29). Addition of ZnCl2 to a solution of Palm-ZP1 produced a characteristic blue-shift in absorption and emission spectra (λabs=505 nm; λem=527 nm) and an enhancement of fluorescence (φZn=0.79±0.05) (FIG. 16a).
ZQ-MPP was prepared manually using standard solid phase methodology. […] In the absence of zinc, ZQ-MPP has two main absorption bands with maxima at λabs=243 and 336 nm (FIG. 26), and is essentially non-emissive (φ≦0.002). Addition of ZnCl2 gives rise to two new features in the absorption spectrum (λabs=264 and 358 nm), and a large increase (>100-fold; φ=0.36±0.01) in fluorescence intensity (λem=484 nm, FIG. 16b, 26, and Table 30).
Spectroscopic measurements for Palm-ZP1 were carried out in a mixed solvent system consisting of 25 mM PIPES buffer (pH 7) with 50 mM KCl and 50% acetonitrile (v/v) (FIG. 24). Except where noted, all fluorescence data were obtained by exciting at 495 nm and observing from 500-650 nm, with 0.1 sec integration time and slit widths of 0.4 mm (1.6 nm). Emission spectra represent the average of three scans. The quantum yield of Palm-ZP1 was referenced to fluorescein in 0.1 M NaOH(aq), which has a known quantum yield of φ=0.95. Lakowicz, J. R. Principles of fluorescence spectroscopy; 2nd ed.; Kluwer Academic/Plenum: New York, 1999.
Characterization of ZQ-MPP (FIG. 26) was performed in 25 mM PIPES buffer (pH 7) with 50 mM KCl, and 50% (v/v) acetonitrile. Zinc affinities (Kd-Zn) were compared to TSQ under identical conditions (FIG. 27 and FIG. 30). Quantum yields for ZQ-MPP and TSQ were reference to quinine sulfate in 0.1 M H2SO4, which has a known quantum yield of (I)=0.58. Eastman, J. W. Photochem. Photobio. 1967, 6, 55.

[5] = 50 mM PIPES buffer (pH 7), 100 mM KCl; read-out: Kd-Zn (known); cited from earlier work
[6] = Apparent zinc-binding affinity (Kd-Zn) by fluorescence titration in buffered zinc solution; details: CaEDTA buffered solution, 25 mM PIPES (pH 7), 50 mM KCl, 50% acetonitrile
Description: Apparent zinc-binding affinities (Kd-Zn) were determined by a modified literature procedure. Walkup, G. K.; et al. J. Am. Chem. Soc. 2000, 122, 5644. For each zinc-binding titration, 1 mM EDTA and 2 mM CaCl2 were added to the MeCN/PIPES buffered solution. Palm-ZP1 or ZP1 was added, and the system was allowed to reach equilibrium (30 min). Aliquots of ZnCl2 were successively added, and the emission spectra recorded once the emission spectrum stabilized (˜30 min). The amount of free zinc for a given concentration of total zinc was calculated using the maxchelator program (http://maxchelator.stanford.edu/webmaxc/webmaxcS.htm) based on initial values of 1 mM EDTA, 2 mM CaCl2, an ionic strength of I=0.05 mol dm^−3, and a pH of 7.0. Due to the addition of acetonitrile to the buffered solution, we compared the apparent Kd-Zn for Palm-ZP1 to ZP1 under identical conditions (FIG. 25 and FIG. 29).
Apparent zinc-binding affinities (Kd-Zn) were determined using a modified literature procedure. Fahrni, C. J.; et al. J. Am. […] Aliquots of ZnCl2 were successively added, and the emission spectra recorded once the emission spectrum stabilized (˜30 min). The amount of free zinc for a given concentration of total zinc was calculated using the maxchelator program (http://maxchelator.stanford.edu/webmaxc/webmaxcS.htm) based on initial values of 2 mM EGTA at an ionic strength of I=0.05 mol dm^−3 and a pH of 7.0. […]

## C=C[C@H]1C[N@@]2CC[C@H]1C[C@H]2[C@H](O)c1ccnc2ccc(OC)cc12 [quinine sulfate]
[1]
  known quantum yield (reference standard): 0.58

## zinquin-FxrFxrFxr-CONH2 [ZQ-MPP]
HeLa cells [2]
  Pearson's correlation coefficient r with MitoTracker Red (mitochondria): 0.71±0.01
HeLa cells [3]; 25 μM probe, addition of 50 μM zinc/pyrithione
  increase in ZQ-MPP intensity: ~15 fold
HeLa cells [3]; addition of 100 μM TPEN
  signal after addition of zinc chelator: returned to near baseline levels
[4]; 50% acetonitrile (v/v)
  quantum yield φ, absence of zinc (apo): ≤ 0.002
  quantum yield φ, zinc-bound: 0.36±0.01
  λabs after addition of ZnCl2: 264 nm and 358 nm
  λabs, absence of zinc (apo): 243 nm and 336 nm
  λem after addition of ZnCl2: 484 nm
[4]; in vitro, 50% acetonitrile
  increase in fluorescence intensity upon addition of ZnCl2: > 100 fold

## O=C1OC2(c3ccccc31)c1cc(Cl)c(O)c(CN(Cc3ccccn3)Cc3ccccn3)c1Oc1c2cc(Cl)c(O)c1CN(Cc1ccccn1)Cc1ccccn1 [ZP1]
[5]
  Kd: 0.7 nM

## Palmitic acid-PPPDDK(ZPI)-CONH2 (Palmitoyl-PPPDDK(ZP1)-NH2; not fully specified) [Palm-ZP1]
HeLa cells [2]
  Pearson's correlation coefficient r with Cell Mask Orange (plasma membrane): 0.70±0.05
HeLa cells [2]; multichannel fluorescence microscopy
  localization in cells: preferentially localize to the plasma membrane
HeLa cells [3]; 10 μM probe, addition of 50 μM ZnCl2, no ionophore
  increase in ZP1 fluorescence intensity at the peripheral membrane: ~1.7 fold
HeLa cells [3]; addition of 100 μM EDTA
  time for fluorescent signal to be attenuated to initial levels: ≤ 5 min
[6]
  Kd-Zn compared with ZP1: closely approximates the Kd-Zn of ZP1
[4]; 50% acetonitrile (v/v)
  quantum yield φ, absence of zinc (apo): 0.16±0.05
  quantum yield φ, zinc-bound: 0.79±0.05
  λabs after addition of ZnCl2: 505 nm
  λabs, absence of zinc (apo): 518 nm
  λem after addition of ZnCl2: 527 nm
  λem, absence of zinc (apo): 534 nm
